According to US20260355196A1, “INHIBITORS AND DEGRADERS OF PIP4K PROTEIN” (Larkspur Biosciences, Inc., priority 2023, published 2026):

biological target: T1, PIP4K2C (Homo sapiens, UniProt Q8TBX8); assay: HiBiT PIP4K2C degradation assay in MOLT-4 cells (endogenous PIP4K2C C-terminally tagged with HiBiT); assay type: cell-based; set-up: untagged in primary human PBMCs and monocyte-derived dendritic cells; conditions: 6 hours of incubation time, rather than 24 hours; MOLT-4, top concentration 10 micromolar; read-out: HiBIT-degradation MOLT4 PIP4k2C DC50 (6 hours, marked *)
T1 sequence (Q8TBX8 1-421): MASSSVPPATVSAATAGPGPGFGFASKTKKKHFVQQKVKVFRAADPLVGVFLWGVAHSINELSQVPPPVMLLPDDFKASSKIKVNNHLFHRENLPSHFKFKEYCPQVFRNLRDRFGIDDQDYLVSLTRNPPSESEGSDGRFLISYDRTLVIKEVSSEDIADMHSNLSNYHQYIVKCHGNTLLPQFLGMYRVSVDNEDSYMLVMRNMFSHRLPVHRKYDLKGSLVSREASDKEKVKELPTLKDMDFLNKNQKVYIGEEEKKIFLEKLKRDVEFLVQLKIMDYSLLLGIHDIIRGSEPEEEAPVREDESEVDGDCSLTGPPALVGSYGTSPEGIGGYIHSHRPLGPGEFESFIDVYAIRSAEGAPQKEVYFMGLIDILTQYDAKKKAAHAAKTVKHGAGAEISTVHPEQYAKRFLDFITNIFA
Source text: Example B-2: HiBiT PIP4K2C degradation assay
Materials: MOLT-4, a human T lymphoblast cell line (see https://www.atcc.org/products/crl-1582, herein incorporated by reference in its entirety), was genetically engineered using CRISPR-Cas9 by Synthego Corporation (Redwood City, CA) to C-terminally tag endogenous PIP4K2C with HiBiT peptide. Following clonal selection, genotype was confirmed by Sanger sequencing. MO LT-4 were maintained using RPMI-1640 medium from Gibco (Grand Island, NY, catalog number 11875-085) supplemented with 10% fetal bovine serum (FBS) from VWR (Philadelphia, PA, catalog number 97068-085). For HiBiT assays the cells were resuspended in RPMI-1640 medium without phenol read from Gibco (Grand Island, NY, catalog number 11835-030) supplemented with 10% FBS. Nano-Glo® HiBiT Lytic Assay System was purchased from Promega (Madison, WI, Catalog number N3030). Cell culture flasks and 384-well microplates were purchased from Corning (Glendale, AZ).
To study PIP4K2C degradation, 384-well plates were plated with a 10-point dose response curve, 3-fold dilution, in duplicate with a top starting concentration of 10 micromolar. Subsequently 22,500 cells were added to each well and incubated at 37 C in 5% C02 for 24 hours or 6 hours. At the end of the incubation time, cells were treated with the Nano-Glo® HiBiT Lytic Detection System following the manufacturer's instructions. Luminescence was measured with a PHERAstar FSX plate reader (BMG Labtech, Cary, NC). The Levenberg-Marquardt algorithm was used to fit a Hill equation to dose-response data to calculate DC50 values (see Table 6).

DC50, < 500 nM:
Cn1nc(N2CCC(=O)NC2=O)c2ccc(C3CCN(CC4(O)CCN(C(=O)O[C@H]5CC[C@H](Nc6ncc(F)c(-c7cccc(-c8ccccc8)c7)n6)CC5)CC4)CC3)cc21 [Compound 635, trans-4-((4-([1,1′-biphenyl]-3-yl)-5-fluoropyrimidin-2-yl)amino)cyclohexyl 4-((4-(3-(2,4-dioxotetrahydropyrimidin-1 (2H)-yl)-1-methyl-1H-indazol-6-yl)piperidin-1-yl)methyl)-4-hydroxypiperidine-1-carboxylate]
O=C1CCC(Nc2ccc(N3CCC(CC4(O)CCN(C(=O)[C@H]5CC[C@H](Nc6ncc(F)c(-c7cccc(-n8ccccc8=O)c7)n6)CC5)CC4)CC3)c(F)c2)C(=O)N1 (stereo partly drawn) [Compound 691, trans-3-((3-fluoro-4-(4-((1-(4-((5-fluoro-4-(3-(2-oxopyridin-1 (2H)-yl)phenyl)pyrimidin-2-yl)amino)cyclohexane-1-carbonyl)-4-hydroxypiperidin-4-yl)methyl)piperidin-1-yl)phenyl)amino)piperidine-2,6-dione]
O=C1CCC(Nc2ccc(N3CCC(OC4CCN(C(=O)[C@H]5CC[C@H](Nc6ncc(F)c(-c7cccc(N8CCCCC8=O)c7)n6)CC5)CC4)CC3)c(F)c2)C(=O)N1 (stereo partly drawn) [Compound 413, trans-3-((3-fluoro-4-(4-((1-(4-((5-fluoro-4-(3-(2-oxopiperidin-1-yl)phenyl)pyrimidin-2-yl)amino)cyclohexane-1-carbonyl)piperidin-4-yl)oxy)piperidin-1-yl)phenyl)amino)piperidine-2,6-dione]
O=C1CCC(Nc2ccc(N3CCC(N4CCC(C(=O)N[C@H]5CC[C@H](Nc6ncc(F)c(-c7cccc(N8CCOCC8)c7)n6)CC5)CC4)C(F)C3)c(F)c2)C(=O)N1 (stereo partly shown) [Compound 655, 1′-(4-((2,6-dioxopiperidin-3-yl)amino)-2-fluorophenyl)-3′-fluoro-N-((1r,4r)-4-((5-fluoro-4-(3-morpholinophenyl)pyrimidin-2-yl)amino)cyclohexyl)-[1,4′-bipiperidine]-4-carboxamide]
O=C1CCC(Nc2ccc(C3CCN([C@H]4CC[C@H](NC(=O)[C@H]5CC[C@H](Nc6ncc(F)c(-c7cccc(N8CCOCC8)c7)n6)CC5)CC4)CC3)c(F)c2)C(=O)N1 (stereo partly drawn) [Compound 657, trans-(1r,4R)—N-((1r,4R)-4-(4-(4-((2,6-dioxopiperidin-3-yl)amino)-2-fluorophenyl)piperidin-1-yl)cyclohexyl)-4-((5-fluoro-4-(3-morpholinophenyl)pyrimidin-2-yl)amino)cyclohexane-1-carboxamide]
O=C1CCC(Nc2ccc(N3CCC(N4CCC(NC(=O)[C@H]5CC[C@H](Nc6ncc(F)c(-c7cccc(N8CCOCC8=O)c7)n6)CC5)CC4)CC3)c(F)c2)C(=O)N1 (stereo partly drawn) [Compound 532, trans-N-(1′-(4-((2,6-dioxopiperidin-3-yl)amino)-2-fluorophenyl)-[1,4′-bipiperidin]-4-yl)-4-((5-fluoro-4-(3-(3-oxomorpholino)phenyl)pyrimidin-2-yl)amino)cyclohexane-1-carboxamide]
O=C1CCC(Nc2ccc(N3CCN([C@H]4CC[C@H](OC(=O)N5CCC(Nc6ncc(F)c(-c7cccc(-n8ccccc8=O)c7)n6)CC5)CC4)CC3)c(F)c2)C(=O)N1 (stereo partly drawn) [Compound 699, trans-(1R,4r)-4-(4-(4-(((R)-2,6-dioxopiperidin-3-yl)amino)-2-fluorophenyl)piperazin-1-yl)cyclohexyl 4-((5-fluoro-4-(3-(2-oxopyridin-1 (2H)-yl)phenyl)pyrimidin-2-yl)amino)piperidine-1-carboxylate]

same assay, conditions: 24 hours incubation, MOLT-4, top concentration 10 micromolar; read-out: HiBIT-degradation MOLT4 PIP4k2C 24 hours DC50

DC50, < 500 nM:
O=C1CCC(n2c(=O)oc3c(C4CCN(C(=O)CN5CCC(C(=O)N6CCC(Nc7ncc(Cl)c(-c8cccc(-c9ccc(F)cc9)c8)n7)CC6)CC5)CC4)cccc32)C(=O)N1 (stereo not shown) [Compound 293, 3-(7-(1-(2-(4-(4-((5-chloro-4-(4′-fluoro-[1,1′-biphenyl]-3-yl)pyrimidin-2-yl)amino)piperidine-1-carbonyl)piperidin-1-yl)acetyl)piperidin-4-yl)-2-oxobenzo[d]oxazol-3 (2H)-yl)piperidine-2,6-dione]
O=C1CCC(Nc2ccc(N3CCC(N4CCC(C(=O)N[C@H]5CC[C@H](Nc6ncc(Cl)c(-c7cccc(-c8ccc(F)cc8)c7)n6)CC5)CC4)CC3)cc2)C(=O)N1 (stereo partly drawn) [Compound 285, trans-N-(4-((5-chloro-4-(4′-fluoro-[1,1′-biphenyl]-3-yl)pyrimidin-2-yl)amino)cyclohexyl)-1′-(4-((2,6-dioxopiperidin-3-yl)amino)phenyl)-[1,4′-bipiperidine]-4-carboxamide]
O=C1CCC(c2ccc(N3CCC(O)(CC(=O)N4CCC(C(=O)N5CCC(Nc6ncc(Cl)c(-c7cccc(-c8ccc(F)cc8)c7)n6)CC5)CC4)CC3)c(F)c2)C(=O)N1 (stereo not shown) [Compound 282, 3-(4-(4-(2-(4-(4-((5-chloro-4-(4′-fluoro-[1,1′-biphenyl]-3-yl)pyrimidin-2-yl)amino)piperidine-1-carbonyl)piperidin-1-yl)-2-oxoethyl)-4-hydroxypiperidin-1-yl)-3-fluorophenyl)piperidine-2,6-dione]
O=C1CCC(N2Cc3cc(OC4CCN(CC5CCN(C(=O)[C@H]6CCC[C@@H](Nc7ncc(Cl)c(-c8cccc(-c9ccccc9)c8)n7)C6)CC5)CC4)ccc3C2=O)C(=O)N1 (relative stereo) [Compound 76, cis-3-(5-((1-((1-(3-((4-([1,1′-biphenyl]-3-yl)-5-chloropyrimidin-2-yl)amino)cyclohexane-1-carbonyl)piperidin-4-yl)methyl)piperidin-4-yl)oxy)-1-oxoisoindolin-2-yl)piperidine-2,6-dione]
Cn1c(=O)n(C2CCC(=O)NC2=O)c2ccc(C3CCN(CC4CCN(CC(=O)N5CCC(Nc6ncc(F)c(-c7cccc(-c8ccccc8)c7)n6)CC5)CC4)CC3)cc21 (stereo not shown) [Compound 286, 3-(5-(1-((1-(2-(4-((4-([1,1′-biphenyl]-3-yl)-5-fluoropyrimidin-2-yl)amino)piperidin-1-yl)-2-oxoethyl)piperidin-4-yl)methyl)piperidin-4-yl)-3-methyl-2-oxo-2,3-dihydro-1H-benzo[d]imidazol-1-yl)piperidine-2,6-dione]
Cn1c(=O)n(C2CCC(=O)NC2=O)c2ccc(C3CCN(CC4CCN(CC(=O)N5CCC(Nc6ncc(F)c(-c7cccc(-c8ccc(F)cc8)c7)n6)CC5)CC4)CC3)cc21 (stereo not shown) [Compound 288, 3-(5-(1-((1-(2-(4-((5-fluoro-4-(4′-fluoro-[1,1′-biphenyl]-3-yl)pyrimidin-2-yl)amino)piperidin-1-yl)-2-oxoethyl)piperidin-4-yl)methyl)piperidin-4-yl)-3-methyl-2-oxo-2,3-dihydro-1H-benzo[d]imidazol-1-yl)piperidine-2,6-dione]
O=C1CCC(n2c(=O)oc3cc(C4CCN(C5CCN(CCC(=O)N6CCC(Nc7ncc(F)c(-c8cccc(-n9ccccc9=O)c8)n7)CC6)CC5)CC4)ccc32)C(=O)N1 (stereo not shown) [Compound 353, 3-(6-(1′-(3-(4-((5-fluoro-4-(3-(2-oxopyridin-1(2H)-yl)phenyl)pyrimidin-2-yl)amino)piperidin-1-yl)-3-oxopropyl)-[1,4′-bipiperidin]-4-yl)-2-oxobenzo[d]oxazol-3 (2H)-yl)piperidine-2,6-dione]
O=C1CCC(n2c(=O)oc3cc(C4CCN(CC5CCN(CC(=O)N[C@H]6CC[C@H](Nc7ncc(Cl)c(-c8cccc(-n9ccccc9=O)c8)n7)CC6)CC5)CC4)ccc32)C(=O)N1 (stereo partly drawn) [Compound 369, trans-N-(4-((5-chloro-4-(3-(2-oxopyridin-1(2H)-yl)phenyl)pyrimidin-2-yl)amino)cyclohexyl)-2-(4-((4-(3-(2,6-dioxopiperidin-3-yl)-2-oxo-2,3-dihydrobenzo[d]oxazol-6-yl)piperidin-1-yl)methyl)piperidin-1-yl)acetamide]

same assay, conditions: read-out: HiBIT-degradation MOLT4 PIP4k2C DC50 (6 hours, marked *); 6 hours of incubation time, rather than 24 hours; MOLT-4, top concentration 10 micromolar

DC50, < 500 nM:
O=C1CCC(Nc2ccc(N3CCN(C4CCN(C(=O)O[C@H]5CC[C@H](Nc6ncc(F)c(-c7cccc(N8CCCCC8=O)c7)n6)CC5)CC4)CC3)c(F)c2)C(=O)N1 (stereo partly drawn) [Compound 675, trans-4-((5-fluoro-4-(3-(2-oxopiperidin-1-yl)phenyl)pyrimidin-2-yl)amino)cyclohexyl 4-(4-(4-((2,6-dioxopiperidin-3-yl)amino)-2-fluorophenyl)piperazin-1-yl)piperidine-1-carboxylate]
